Results: ChEMBL document CHEMBL1201862, “PubChem BioAssay data set” (2004)
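Growth conditions: 96-well plates. Treatment: test compound, 48 hours, 5 concentrations. Analysis: linear interpolation between bracketing concentrations; unreached endpoints set to highest concentration. Here, GI50 denotes the concentration required for 50% inhibition of growth.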 Calls of active or inactive are those of the source. No stated cut-off is given here; in the data, active = GI50 up to about 1.1 µM and inactive = higher.

How the values were obtained:
Assay in all cases: DTP human tumour cell line panel, 48 h
ACHN = test system: ACHN
CCRF-CEM = test system: CCRF-CEM
DU-145 = test system: DU-145
EKVX = test system: EKVX
HCT-15 = test system: HCT-15
HOP-62 = test system: HOP-62
K562 = test system: K562
KM12 = test system: KM12
M14 = test system: M14
Malme-3M = test system: Malme-3M
NCI-H23 = test system: NCI-H23
NCI-H522 = test system: NCI-H522
OVCAR-3 = test system: OVCAR-3
SF-539 = test system: SF-539
SK-MEL-5 = test system: SK-MEL-5
SN12C = test system: SN12C
SNB-19 = test system: SNB-19
SW-620 = test system: SW-620
UACC-62 = test system: UACC-62
LOX IMVI = test system: LOX IMVI

SMILES	GI50 (ACHN)	GI50 (CCRF-CEM)	GI50 (DU-145)	GI50 (EKVX)	GI50 (HCT-15)	GI50 (HOP-62)	GI50 (K562)	GI50 (KM12)	GI50 (M14)	GI50 (Malme-3M)	GI50 (NCI-H23)	GI50 (NCI-H522)	GI50 (OVCAR-3)	GI50 (SF-539)	GI50 (SK-MEL-5)	GI50 (SN12C)	GI50 (SNB-19)	GI50 (SW-620)	GI50 (UACC-62)	GI50 (LOX IMVI)
C[N+](C)(C)CC1CCCc2ccccc2C1=O (stereo not drawn)	5.02 µM (inactive)	2.32 µM (inactive)	> 42.1 µM (inactive)	6.46 µM (inactive)	5.98 µM	18.8 µM (inactive)	2.49 µM (inactive)	9.86 µM (inactive)	4.52 µM (inactive)	5.79 µM (inactive)	17.9 µM (inactive)	1.49 µM (inactive)	7.26 µM (inactive)	17.4 µM (inactive)	6.59 µM (inactive)	6.68 µM (inactive)	29 µM (inactive)	2.04 µM (inactive)	12.2 µM (inactive)	
NNC(=O)c1cc(=O)[nH][nH]1	> 100 µM (inactive)	> 100 µM (inactive)	> 100 µM (inactive)	> 100 µM (inactive)	> 100 µM		> 100 µM (inactive)	> 100 µM (inactive)	> 100 µM (inactive)	> 100 µM (inactive)	> 100 µM (inactive)	> 100 µM (inactive)		> 100 µM (inactive)	> 100 µM (inactive)	> 100 µM (inactive)	> 100 µM (inactive)	> 100 µM (inactive)	> 100 µM (inactive)	
N#C/C=C(/NC(=O)Nc1ccccc1)N1CCCC1	> 38.7 µM (inactive)	> 100 µM (inactive)	> 50.9 µM (inactive)	> 59.7 µM (inactive)	> 56.2 µM		> 59.4 µM (inactive)	> 54.8 µM (inactive)	> 49 µM (inactive)	> 45 µM (inactive)	> 49.3 µM (inactive)	> 47.4 µM (inactive)	> 100 µM (inactive)	> 47.4 µM (inactive)	56.4 µM (inactive)	> 86.3 µM (inactive)	> 25.2 µM (inactive)	> 44.2 µM (inactive)	> 82.6 µM (inactive)	> 66.7 µM (inactive)
COc1ccc(C2=CC(c3ccc4c(c3)OCO4)c3c(c4ccccc4oc3=O)O2)cc1OC (stereo not drawn)	1.5 µM (inactive)	2.49 µM (inactive)	2.25 µM (inactive)	4.16 µM (inactive)	0.546 µM	1.44 µM (inactive)	0.415 µM (active)	1.76 µM (inactive)	3.54 µM (inactive)	> 81.8 µM (inactive)	2.51 µM (inactive)	0.486 µM (active)		0.69 µM (active)	0.766 µM (active)	5.56 µM (inactive)	2.53 µM (inactive)	0.933 µM (active)	0.424 µM (active)	1.26 µM (inactive)
O=C(N/N=C/c1ccco1)c1cc(I)cc(I)c1O	22 µM (inactive)	> 50 µM (inactive)	23.4 µM (inactive)	12.4 µM (inactive)	19.7 µM		27.6 µM (inactive)		8.24 µM (inactive)	22.2 µM (inactive)	21.7 µM (inactive)	27.2 µM (inactive)		11.8 µM (inactive)	12.4 µM (inactive)	9.06 µM (inactive)	32.2 µM (inactive)	22.2 µM (inactive)	16.6 µM (inactive)	16.4 µM (inactive)
CN(CCO)CC(=O)CC(O)(C(F)(F)F)C(F)(F)F	27.7 µM (inactive)	32.1 µM (inactive)	42.7 µM (inactive)	31.2 µM (inactive)	33.3 µM		42.4 µM (inactive)	39.8 µM (inactive)	32.5 µM (inactive)	34.7 µM (inactive)	23.6 µM (inactive)	40.2 µM (inactive)	26.5 µM (inactive)	34.7 µM (inactive)	16.3 µM (inactive)		41.4 µM (inactive)	34.9 µM (inactive)	35.6 µM (inactive)	31.4 µM (inactive)
CCC(NC(C)c1ccccc1)C(=O)c1ccc(OCc2ccccc2)c(OCc2ccccc2)c1 (stereo not drawn)	> 100 µM (inactive)		> 100 µM (inactive)	> 100 µM (inactive)	> 100 µM	> 100 µM (inactive)	4.81 µM (inactive)	> 100 µM (inactive)	> 100 µM (inactive)	> 100 µM (inactive)	> 100 µM (inactive)	> 100 µM (inactive)	> 100 µM (inactive)	> 100 µM (inactive)	> 100 µM (inactive)	> 100 µM (inactive)	> 100 µM (inactive)	> 100 µM (inactive)	> 100 µM (inactive)	> 100 µM (inactive)
COC(=O)c1c2c(cc3c1CC1(Cc4ccccc4C1)C3)CCC2	23.8 µM (inactive)	17.2 µM (inactive)	47.4 µM (inactive)	25.6 µM (inactive)	23 µM	28.2 µM (inactive)	4.32 µM (inactive)	13 µM (inactive)		20.2 µM (inactive)	31.3 µM (inactive)	14 µM (inactive)	18.9 µM (inactive)	39.5 µM (inactive)	13.5 µM (inactive)	16.9 µM (inactive)		14.2 µM (inactive)	20.9 µM (inactive)	15.9 µM (inactive)
O=C(/C=C/c1ccccc1)CSc1nc[nH]n1	> 100 µM (inactive)	34.8 µM (inactive)	> 100 µM (inactive)	> 100 µM (inactive)	41.3 µM	> 100 µM (inactive)	46.8 µM (inactive)	> 100 µM (inactive)	> 100 µM (inactive)	> 100 µM (inactive)	> 100 µM (inactive)	30.5 µM (inactive)	> 100 µM (inactive)	> 100 µM (inactive)	38.5 µM (inactive)	> 100 µM (inactive)	> 100 µM (inactive)	65.5 µM (inactive)	> 100 µM (inactive)	
O=C1c2ccccc2NC(c2cc(Cl)cc(Cl)c2O)N1CCc1ccccn1 (stereo not drawn)	87.3 µM (inactive)		46.7 µM (inactive)	62.5 µM (inactive)	86.3 µM	> 100 µM (inactive)	> 100 µM (inactive)	64 µM (inactive)	64.4 µM (inactive)	30.8 µM (inactive)	> 100 µM (inactive)	41.9 µM (inactive)	> 100 µM (inactive)	> 100 µM (inactive)	> 100 µM (inactive)	69.8 µM (inactive)	88.9 µM (inactive)	76.7 µM (inactive)	> 100 µM (inactive)	> 100 µM (inactive)
Nc1ccc2c(c1)Nc1c3ccccc3nc3cccc-2c13	1.43 µM (inactive)	3.85 µM (inactive)	1.59 µM (inactive)	1.69 µM (inactive)		1.3 µM (inactive)	0.416 µM (active)	1.32 µM (inactive)	2.12 µM (inactive)	1.85 µM (inactive)	1.48 µM (inactive)	1.55 µM (inactive)	1.72 µM (inactive)	1.66 µM (inactive)	1.75 µM (inactive)	1.29 µM (inactive)	1.64 µM (inactive)	0.585 µM (active)	1.82 µM (inactive)	1.3 µM (inactive)
